Laboratory results as given in article PMC6411751, “Use of machine learning to identify novel, behaviorally active antagonists of the insect odorant receptor co-receptor (Orco) subunit” (Scientific Reports, 2019).
Where a name gives a salt, the structure may show the parent alone.

Tests used:
Assay type in all cases: cell-based
Agam\Or28 + Agam\Orco = biological target: T1, Agam\Or28 + Agam\Orco (Anopheles gambiae, UniProt Q7QCC7); test: Inhibition of heteromeric OR in oocytes (acetophenone activation); conditions: for inhibition of odorant activation: 100 µM antagonist, 40 µM acetophenone
T1 construct: expressed in transfected cells; host or cells: Xenopus laevis oocytes
T1 sequence (Q7QCC7 1-478): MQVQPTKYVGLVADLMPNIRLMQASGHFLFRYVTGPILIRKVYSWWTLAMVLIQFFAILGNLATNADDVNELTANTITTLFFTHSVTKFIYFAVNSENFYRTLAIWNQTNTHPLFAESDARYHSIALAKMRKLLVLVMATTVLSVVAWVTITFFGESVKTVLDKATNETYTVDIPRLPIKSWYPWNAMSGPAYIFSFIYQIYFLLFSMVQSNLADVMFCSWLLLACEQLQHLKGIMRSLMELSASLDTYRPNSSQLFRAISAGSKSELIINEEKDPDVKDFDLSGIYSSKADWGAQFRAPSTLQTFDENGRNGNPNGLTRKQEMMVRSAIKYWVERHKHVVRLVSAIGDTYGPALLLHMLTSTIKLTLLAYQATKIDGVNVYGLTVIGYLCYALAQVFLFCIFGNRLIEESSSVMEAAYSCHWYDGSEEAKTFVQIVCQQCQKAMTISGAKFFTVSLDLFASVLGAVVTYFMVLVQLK
Experimental: (§1) An automated parallel electrophysiology system (OpusExpress 6000 A, Molecular Devices) was used to record Orco agonist (OLC12) or odorant induced currents under two-electrode voltage clamp. Oocytes were perfused with ND96 (in mM: 96 NaCl, 2 KCl, 1 CaCl2, 1 MgCl2, 5 HEPES, pH 7.4). DMSO was used to prepare 1 M or 100 mM stock solutions of test compounds, which were then diluted in ND96 on the day of the experiment. Compounds were applied at a flow rate of 1.0 mL/min, with extensive washing in ND96 at 4.6 mL/min between applications. Micropipettes with resistances of 0.2–2.0 MΩ were filled with 3 M KCl. The holding potential was −70 mV. Current responses were filtered (4-pole, Bessel, low pass) at 20 Hz (−3 db) and sampled at 100 Hz. OpusXpress 1.1 software (Molecular Devices) was used to capture and store current responses.

Dmel\Or35a + Dmel\Orco = biological target: T2, Dmel\Or35a + Dmel\Orco (Drosophila melanogaster, UniProt Q9VNB5); test: Inhibition of heteromeric OR in oocytes (hexanol or OLC12 activation); conditions: for inhibition of odorant activation: 100 µM antagonist, 1 µM hexanol; for antagonism of OLC12 (Orco agonist) activation of heteromeric OR: 100 or 300 µM antagonist, 10 µM OLC12
T2 construct: expressed in transfected cells; host or cells: Xenopus laevis oocytes
T2 sequence (Q9VNB5 1-486): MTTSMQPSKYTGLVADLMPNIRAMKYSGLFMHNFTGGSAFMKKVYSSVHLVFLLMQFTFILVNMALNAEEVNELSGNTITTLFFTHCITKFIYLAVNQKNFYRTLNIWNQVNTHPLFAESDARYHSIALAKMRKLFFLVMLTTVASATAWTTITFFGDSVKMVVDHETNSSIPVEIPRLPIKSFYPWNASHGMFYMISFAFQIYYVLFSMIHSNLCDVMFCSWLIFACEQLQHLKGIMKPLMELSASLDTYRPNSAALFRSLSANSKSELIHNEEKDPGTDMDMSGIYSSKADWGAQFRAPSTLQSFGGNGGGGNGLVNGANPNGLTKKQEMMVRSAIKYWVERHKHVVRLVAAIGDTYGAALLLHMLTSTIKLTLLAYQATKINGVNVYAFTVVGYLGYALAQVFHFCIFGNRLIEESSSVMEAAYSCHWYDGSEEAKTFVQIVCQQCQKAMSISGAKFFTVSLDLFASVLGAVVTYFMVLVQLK
T2 sequence (Q9V3Q2 1-409 partner): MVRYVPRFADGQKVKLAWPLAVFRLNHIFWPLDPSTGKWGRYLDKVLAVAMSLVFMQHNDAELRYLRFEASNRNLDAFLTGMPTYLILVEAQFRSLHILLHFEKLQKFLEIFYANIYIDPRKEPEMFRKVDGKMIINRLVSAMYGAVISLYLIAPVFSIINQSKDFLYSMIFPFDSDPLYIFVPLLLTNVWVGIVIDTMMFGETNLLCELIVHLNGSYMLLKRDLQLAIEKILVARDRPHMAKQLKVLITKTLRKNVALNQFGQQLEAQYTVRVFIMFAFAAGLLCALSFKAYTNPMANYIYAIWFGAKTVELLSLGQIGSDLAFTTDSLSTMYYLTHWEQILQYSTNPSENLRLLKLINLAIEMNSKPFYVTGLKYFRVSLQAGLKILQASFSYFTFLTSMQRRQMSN
Experimental: as §1
(§2) To measure the ability of Orco antagonists to inhibit odorant activation, oocytes expressing heteromeric ORs (Orco + ORX) were exposed to a 30 sec application of odorant followed by a 20 min wash. Oocytes were then exposed to a 90 sec application of Orco antagonist, immediately followed by a 30 sec co-application of Orco antagonist and odorant. The current response to odorant in the presence of Orco antagonist was compared to the preceding response to odorant alone and represented as a percentage. This value was then normalized to the value obtained when the assay was run in the absence of antagonist (sham).
(§3) Figure S3. Effects of Orco antagonists on heteromeric ORs. […]
heteromeric complexes of odorant specificity subunits and Orco. The Orco antagonists tested were 3-isopropyl-6-methyl-catechol (3 I6 MC), a potent compound from the input training set, and two compounds id e ntified in Fig u re 4 an d Ta b le 1 : 2-tert-butyl-6-methylphenol (B MP ) and linalyl formate (LF) . These compounds were tested for antagonist activity against odorant activation of three ORs from Anopheles gambiae (Agam\Or28 + Agam\Orco, Agam\Or39 + A ga m\Orco, Agam\Or65 + A ga m\Orco), o ne O R fro m Culex quinquefasciatus, the southern house mosquito (Cq u i\Or21 + Cqui\Orco) an d on e O R f ro m Drosophila melanogaster (Dme l\Or35a + Dmel\Orco). Each OR was activated by its cognate odorant agonist applied at an approximate EC50 concentration. […]
SEM (n = 4). […] Statistical significance of the data in each panel was assessed by one-way analysis of variance followed by Dunnett’s multiple comparison test using the pre-normalized values for each antagonist compared to the values obtained in the sham recordings (*, p < 0 .0 5; **, p < 0. 01; ***, p < 0 . 00 1 ).

Agam\Or65 + Agam\Orco = biological target: T3, Agam\Or65 + Agam\Orco (Anopheles gambiae, UniProt Q7QCC7); test: Inhibition of heteromeric OR in oocytes (eugenol activation); conditions: 100 µM antagonist; 100 nM eugenol
T3 construct: expressed in transfected cells; host or cells: Xenopus laevis oocytes
T3 sequence (Q7QCC7 1-478): T1 sequence (Q7QCC7 1-478)
Experimental: as §1, §2, §3
heteromeric complexes of odorant specificity subunits and Orco. The Orco antagonists tested were 3-isopropyl-6-methyl-catechol (3 I6 MC), a potent compound from the input training set, and two compounds id e ntified in Fig u re 4 an d Ta b le 1 : 2-tert-butyl-6-methylphenol (B MP ) and linalyl formate (LF) . […]
SEM (n = 4). […] Statistical significance of the data in each panel was assessed by one-way analysis of variance followed by Dunnett’s […]

| Structure (SMILES) | IC50 (Agam\Or28 + Agam\Orco; 100 µM acetophenone, n = 4-8, read-out: IC50 for inhibition of Agam\Or28 + Agam\Orco activation by 100 µM ACE) [µM] | inhibition of odorant activation (Agam\Or28 + Agam\Orco) | mechanism of inhibition of odorant responses (Agam\Or28 + Agam\Orco; 10 vs 100 µM acetophenone fails to shift inhibition curve) | inhibition of odorant activation (Dmel\Or35a + Dmel\Orco) | antagonism of OLC12 (Orco agonist) activation of heteromeric OR (Dmel\Or35a + Dmel\Orco) | inhibition of odorant activation (Agam\Or65 + Agam\Orco) |
| --- | --- | --- | --- | --- | --- | --- |
| Cc1cccc(C(C)(C)C)c1O [BMP, 2-tert-butyl-6-methylphenol] | 53 ± 9 | able to inhibit odorant activation | non-competitive | able to inhibit odorant activation | able to antagonize OLC12 | able to inhibit odorant activation |
| Cc1ccc(C(C)C)c(O)c1O [3I6MC, 3-isopropyl-6-methyl catechol] |  | could inhibit odorant activation |  | could inhibit odorant activation | could antagonize OLC12 | could inhibit odorant activation |
| C=CC(C)(CCC=C(C)C)OC=O (centres unmarked) [LF, linalyl formate] |  | able to inhibit odorant activation |  | able to inhibit odorant activation | able to antagonize OLC12 | able to inhibit odorant activation |
